According to ChEMBL document CHEMBL4613212, “Insights of synthetic analogues of anti-leprosy agents” (Bioorg Med Chem, 2019):
≈ marks a conversion by molar mass, not a printed value.

What was measured:
Mycobacterium leprae [1] = test: Antimicrobial activity against Mycobacterium leprae assessed as microbial growth at 0.375 ug/ml in presence of 0.2 ug/ml rifampin measured at 4 weeks (reference value: 147 +/- 19.1%); type: functional
Mycobacterium leprae [2] = test: Antimicrobial activity against Mycobacterium leprae assessed as microbial growth at 0.1875 ug/ml in presence of 0.05 ug/ml rifabutin measured at 4 weeks (reference value: 147 +/- 19.1%); type: functional
Mycobacterium leprae [3] = test: Antimicrobial activity against Mycobacterium leprae assessed as microbial growth at 0.375 ug/ml in presence of 0.1 ug/ml rifampin measured at 4 weeks (reference value: 147 +/- 19.1%); type: functional
Mycobacterium leprae [4] = test: Antimicrobial activity against Mycobacterium leprae assessed as fractional inhibitory concentration index at 0.375 ug/ml in presence of 0.2 ug/ml rifampin measured at 4 weeks; type: functional
Mycobacterium leprae [5] = test: Antimicrobial activity against Mycobacterium leprae assessed as microbial growth at 0.1875 ug/ml in presence of 0.0125 ug/ml KRM-1648 measured at 4 weeks (reference value: 147 +/- 19.1%); type: functional
Mycobacterium leprae [6] = test: Antimicrobial activity against Mycobacterium leprae assessed as fractional inhibitory concentration index at 0.1875 ug/ml in presence of 0.05 ug/ml rifabutin measured at 4 weeks; type: functional
Mycobacterium leprae [7] = test: Antimicrobial activity against Mycobacterium leprae assessed as microbial growth at 0.1875 ug/ml in presence of 0.0062 ug/ml KRM-1648 measured at 4 weeks (reference value: 147 +/- 19.1%); type: functional
Mycobacterium leprae [8] = test: Antimicrobial activity against Mycobacterium leprae assessed as fractional inhibitory concentration index at 0.1875 ug/ml in presence of 0.0125 ug/ml KRM-1648 measured at 4 weeks; type: functional
Mycobacterium leprae [9] = test: Antimicrobial activity against Mycobacterium leprae assessed as microbial growth at 0.1875 ug/ml in presence of 0.025 ug/ml rifabutin measured at 4 weeks (reference value: 147 +/- 19.1%); type: functional
Mycobacterium leprae [10] = test: Anti-leprotic activity against Mycobacterium leprae infected in BALB/c mouse assessed as time delay in bacterial multiplication in footpad at 0.003 g/100g of diet administered via feed starting 60 or 75 day post infection up to 90 days by Shepard's kinetic method; type: functional
[11] = system: Mycolicibacterium smegmatis; test: Antimycobacterial activity against DDS sensitive Mycobacterium smegmatis ATCC 607 […]; type: functional
[12] = system: Mycolicibacterium smegmatis; test: Antimycobacterial activity against DDS resistant Mycobacterium smegmatis ATCC 607 […]; type: functional
Mycobacterium leprae [13] = test: Antimicrobial activity against Mycobacterium leprae assessed as fractional inhibitory concentration index at 1.5 ug/ml in presence of 0.025 ug/ml KRM-1648 measured at 4 weeks; type: functional
[14] = system: Mycolicibacterium fortuitum; test: Antimicrobial activity against Mycobacterium fortuitum incubated for 24 hrs by broth microdilution assay; type: functional
[15] = system: Mycolicibacterium smegmatis; test: Antimicrobial activity against Mycobacterium smegmatis incubated for 24 hrs by broth microdilution assay; type: functional
Mycobacterium leprae [16] = test: Antimicrobial activity against Mycobacterium leprae assessed as fractional inhibitory concentration index at 1.5 ug/ml in presence of 0.1 ug/ml rifabutin measured at 4 weeks; type: functional
Mycolicibacterium vaccae = test: Antimicrobial activity against Mycobacterium vaccae incubated for 24 hrs by broth microdilution assay; type: functional
Mycobacterium leprae [17] = test: Antimicrobial activity against Mycobacterium leprae assessed as microbial growth at 1.5 ug/ml in presence of 0.0125 ug/ml KRM-1648 measured at 4 weeks (reference value: 147 +/- 19.1%); type: functional
Mycobacterium leprae [18] = test: Antimicrobial activity against Mycobacterium leprae assessed as fractional inhibitory concentration index at 1.5 ug/ml in presence of 0.2 ug/ml rifampin measured at 4 weeks; type: functional
Mycobacterium leprae [19] = test: Antimicrobial activity against Mycobacterium leprae assessed as microbial growth at 1.5 ug/ml in presence of 0.1 ug/ml rifampin measured at 4 weeks (reference value: 147 +/- 19.1%); type: functional
Mycobacterium leprae [20] = test: Antimicrobial activity against Mycobacterium leprae assessed as microbial growth at 1.5 ug/ml in presence of 0.1 ug/ml rifabutin measured at 4 weeks (reference value: 147 +/- 19.1%); type: functional
Mycobacterium leprae [21] = test: Antimicrobial activity against Mycobacterium leprae assessed as microbial growth at 1.5 ug/ml in presence of 0.2 ug/ml rifampin measured at 4 weeks (reference value: 147 +/- 19.1%); type: functional
Mycolicibacterium aurum = test: Antimicrobial activity against Mycobacterium aurum incubated for 24 hrs by broth microdilution assay; type: functional
Mycobacterium leprae [22] = test: Antimicrobial activity against Mycobacterium leprae assessed as microbial growth at 1.5 ug/ml in presence of 0.025 ug/ml KRM-1648 measured at 4 weeks (reference value: 147 +/- 19.1%); type: functional
Mycobacterium leprae [23] = test: Antimicrobial activity against Mycobacterium leprae assessed as microbial growth at 1.5 ug/ml in presence of 0.05 ug/ml rifabutin measured at 4 weeks (reference value: 147 +/- 19.1%); type: functional
[24] = system: Mycobacterium tuberculosis; test: Antitubercular activity against Mycobacterium tuberculosis H37Rv ATCC 27294 infected in bone marrow macrophages assessed as reduction in growth after 7 days; type: functional; settings: H37Rv ATCC 27294, 168 h
[25] = system: Mycobacterium tuberculosis; test: Antitubercular activity against Mycobacterium tuberculosis H37Rv ATCC 27294 assessed as inhibition of [3H]-thymidine incorporation relative to control; type: functional
[26] = Selectivity index, ratio of IC50 for African green monkey Vero cells to MIC for antitubercular activity against Mycobacterium tuberculosis H37Rv; type: toxicity; settings: Vero cells, read-out: Selectivity Index
[27] = system: Mycobacterium tuberculosis; test: Antitubercular activity against Mycobacterium tuberculosis H37Rv ATCC 27294 assessed as growth inhibition at 6.25 ug/ml by microplate alamar blue assay relative to control; type: functional
Mycobacterium leprae [28] = test: Anti-leprotic activity against Mycobacterium leprae infected in BALB/c weanling mouse assessed as bacteria killing at 150 mg/kg, ip administrated for 60 days and measured after 1 year by most probable number technique analysis relative to control; type: functional
[29] = system: Mycobacterium tuberculosis; test: Antimycobacterial activity against Mycobacterium tuberculosis H37Rv by BACTEC radiometric growth assay; type: functional
Mycobacterium leprae [30] = test: Anti-leprotic activity against Mycobacterium leprae infected in BALB/c weanling mouse assessed as bacteria killing at 150 mg/kg, ip administrated for 60 days and measured after 1 year by Spearman-Karber technique analysis relative to control; type: functional
Mycobacterium leprae [31] = test: Anti-leprotic activity against Mycobacterium leprae infected in BALB/c weanling mouse assessed as bacteria killing at 150 mg/kg, ip administrated cotreated with 0.0001% dietary dapsone for 60 days and measured after 1 year by most probable number technique analysis relative to control; type: functional
Mycobacterium leprae [32] = test: Anti-leprotic activity against Mycobacterium leprae infected in BALB/c weanling mouse assessed as bacteria killing at 150 mg/kg, ip administrated cotreated with 0.0001% dietary dapsone for 60 days and measured after 1 year by Spearman-Karber technique analysis relative to control; type: functional

Structure (SMILES): C[C@H]1COc2c(N3CCN(C)CC3)c(F)cc3c(=O)c(C(=O)O)cn1c23.C[C@H]1COc2c(N3CCN(C)CC3)c(F)cc3c(=O)c(C(=O)O)cn1c23.O [LEVOFLOXACIN]
- Activity (Mycobacterium leprae [1]): 0%
- Activity (Mycobacterium leprae [2]): 0%
- Activity (Mycobacterium leprae [3]): 87%
- fractional inhibitory concentration index (FICI) (Mycobacterium leprae [4]): 1
- Activity (Mycobacterium leprae [5]): 0%
- fractional inhibitory concentration index (FICI) (Mycobacterium leprae [6]): 0.5
- Activity (Mycobacterium leprae [7]): 115%
- fractional inhibitory concentration index (FICI) (Mycobacterium leprae [8]): 0.5
- Activity (Mycobacterium leprae [9]): 133%

Structure (SMILES): Nc1ccc(S(=O)(=O)c2cccc(N)c2)cc1
- Time (Mycobacterium leprae [10]): 133 days
- MIC [11]: 24.2 µg/mL (≈ 97.5 µM)
- MIC [12]: 1300 µg/mL (≈ 5240 µM)

Structure (SMILES): O=C(O)c1cn(C2CC2)c2cc(N3CCNCC3)c(F)cc2c1=O [CIPROFLOXACIN]
- fractional inhibitory concentration index (FICI) (Mycobacterium leprae [13]): 1
- MIC [14]: 0.05 µg/mL (≈ 0.151 µM)
- MIC [15]: 0.8 µg/mL (≈ 2.41 µM)
- fractional inhibitory concentration index (FICI) (Mycobacterium leprae [16]): 1
- MIC (Mycolicibacterium vaccae): 0.4 µg/mL (≈ 1.21 µM)
- Activity (Mycobacterium leprae [17]): 19%
- fractional inhibitory concentration index (FICI) (Mycobacterium leprae [18]): 1
- Activity (Mycobacterium leprae [19]): 28%
- Activity (Mycobacterium leprae [20]): 0%
- Activity (Mycobacterium leprae [21]): 0%
- MIC (Mycolicibacterium aurum): < 0.05 µg/mL
- Activity (Mycobacterium leprae [22]): 0%
- Activity (Mycobacterium leprae [23]): 21%

Structure (SMILES): Clc1nc(-c2ccco2)c2ncn(Cc3ccccc3)c2n1
- EC99 [24]: 8 µg/mL
- inhibition (INH) [25]: 27%
- selectivity ratio [26]: 10.6
- inhibition at 6.25 µg/mL [27]: > 90%

Structure (SMILES): CN[C@@H]1[C@H](O[C@H]2[C@H](O[C@H]3[C@H](O)[C@@H](O)[C@H](N=C(N)N)[C@@H](O)[C@@H]3N=C(N)N)O[C@@H](C)[C@]2(O)C=O)O[C@@H](CO)[C@H](O)[C@H]1O [STREPTOMYCIN]
- Activity (Mycobacterium leprae [28]): 97.2%
- MIC [29]: 2 µg/mL (≈ 3.44 µM)
- Activity (Mycobacterium leprae [30]): 97%
- Activity (Mycobacterium leprae [31]): 95.7%
- Activity (Mycobacterium leprae [32]): 95%
